According to patent publication US5583127A, “17-iminomethylalkenyl-5 β, 14 β-androstane and 17-iminoalkyl-5 β, 14 β-androstane derivatives active on the cardiovascular system, and pharmaceutical compositions containing same” (Sigma-Tau Industrie Farmaceutiche Riunite S.p.A., priority 1993, dated 1996):
Read-outs that look alike come from different tables or passages of the source.

Legend:
Na^+,K^+ -ATPase = conditions: reported in literature; cited from earlier work
[1] = reported in literature; cited from earlier work
[2] = test system: spontaneous hypertensive rats (MHS); assay: effect of 5 week-treatment in spontaneous hypertensive rats (MHS) on the development of hypertension (SBP and HR, tail cuff); assay type: in vivo, rat; conditions: 10 mg/Kg/os daily in Methocel 0.5% w/v, 5 weeks
Protocol: Systolic blood pressure (SBP) and heart rate (HR) were measured, by the tail cuff method, in young prehypertensive male rats (MHS or SHR) strains before the development of hypertension (4 weeks of age) for recording the basal values of SBP. Groups of 7 rats were formed and subdivided in control and treated groups. The compound, suspended in Methocel 0.5% (w/v), was orally given daily for at least 5 weeks to the treated groups. The control group received only Methocel. SBP and HR were measured weekly 6 and 24 hrs after treatment. After 5 weeks of treatment, when hypertension was fully developed in the control group (9 weeks of age), washout was started for at least one week, to verify whether the treatment maintained blood pressure low or reestablished the basal values. […] (Takeda K. et al., Japan J. Pharmacol., 1979, 29,171; Takeda K. et al. Japan J. Pharmacol., 1982, 32, 283; Richer C. et al. Eur. J. Pharmacol, 1978, 47,393).

[3] = target: Na^+, K^+ -ATPase receptor (Homo sapiens, UniProt P05023); assay: displacement of the specific 3H-ouabain binding from the Na+,K+-ATPase receptor
[4] = target: purified Na^+,K^+ -ATPase (Homo sapiens, UniProt P05023); assay: inhibition of the activity of the purified Na+,K+-ATPase (% hydrolysis of 32P-ATP); assay type: biochemical; conditions: read-out: Inhibitory Activity log IC50 (converted)
[5] = displacement of specific 3H-ouabain binding, read-out: Binding ^3 H-Ouab. Displacement log IC50 (converted)

| Compound | IC50 [3, 5] [nM] | IC50 ([4]; purified Na+,K+-ATPase) [nM] | other results |
| --- | --- | --- | --- |
| C[C@]12CC[C@H](O)C[C@H]1CC[C@@H]1[C@@H]2CC[C@]2(C)C(=NNC(=N)N)CC[C@]12O [17-guanidinoimino-5β-androstane-3β,14β-diol] | – | – | inhibition of Na+,K+-ATPase (Na^+,K^+ -ATPase): weak inhibitors of Na^+,K^+ -ATPase; positive inotropic activity [1]: weak positive inotropic agents |
| C[C@]12CC[C@H](O)C[C@H]1CC[C@@H]1[C@@H]2CC[C@]2(C)[C@@H](C=NNC(=N)N)CC[C@]12O [17β-guanidinoiminomethyl-5β-androstane-3β,14β-diol] | – | – | inhibition of Na+,K+-ATPase (Na^+,K^+ -ATPase): weak inhibitors of Na^+,K^+ -ATPase; positive inotropic activity [1]: weak positive inotropic agents |
| C[C@]12CC[C@H](O)C[C@H]1CC[C@@H]1[C@@H]2CC[C@]2(C)[C@@H](/C=C/C=N/NC(=N)N)CC[C@]12O [Comp. I-aa, (E,E)-17β-(3-Guanidinoimino-1-propenyl)-5β-androstane-3β,14β-diol] | 25.1 | – | SBP (systolic blood pressure) ([2]; controls 172 +/- 3.5): 149 +/- 3.9 mm Hg; HR (heart rate) ([2]; controls 380 +/- 9.0): 373 +/- 10.0 beats/min. |
| C[C@]12CC[C@H](O)C[C@H]1CC[C@@H]1[C@@H]2CC[C@]2(C)[C@@H](/C=C/C=N/NC3=NCCCN3)CC[C@]12O [Comp. I-ag, (E,E)-17β-[3-(1,4,5,6-Tetrahydro-2-pyrimidinyl)hydrazono-1-propenyl]-5β-androstane-3β,14β-diol] | 39.8 | 1580 | – |
| C[C@]12CC[C@H](O)C[C@H]1CC[C@@H]1[C@@H]2CC[C@]2(C)[C@@H](/C=C/C=N\NC3=NCCCN3)CC[C@]12O [Comp. I-ah, 17β-[3-(Z)-(1,4,5,6-Tetrahydro-2-pyrimidinyl)hydrazono-1-(E)-propenyl]-5β-androstane-3β,14β-diol] | – | – | IC50 [4]: 7940 nM; IC50 [3]: 794 nM |
| CN(C)CCNC(=N)N/N=C/C=C/[C@H]1CC[C@]2(O)[C@@H]3CC[C@@H]4C[C@@H](O)CC[C@]4(C)[C@H]3CC[C@]12C [Comp. I-ai, (E,E)-17β-{3-[3-(2-Dimethylaminoethyl)guanidinoimino]-1-propenyl}-5β-androstane-3β,14β-diol] | 251 | – | IC50 [4]: 3160 nM |
| C[C@]12CC[C@H](O)C[C@H]1CC[C@@H]1[C@@H]2CC[C@]2(C)[C@@H](/C=C/C=N/NC(=N)Nc3ccccc3)CC[C@]12O [Comp. I-aj, (E,E)-17β-[3-(3-Phenyl)guanidinoimino-1-propenyl]-5β-androstane-3β,14β-diol] | 1000 | – | IC50 [4]: 10000 nM |
| C[C@]12CC[C@H](O)C[C@H]1CC[C@@H]1[C@@H]2CC[C@]2(C)[C@@H](/C=C/C=N/NC(N)=O)CC[C@]12O [Comp. I-ak, (E,E)-17β-(3-Semicarbazono)-1-propenyl-5β-androstane-3β,14β-diol] | 2000 | – | IC50 [4]: 25100 nM |
| C[C@]12CC[C@H](O)C[C@H]1CC[C@@H]1[C@@H]2CC[C@]2(C)[C@@H](/C=C/C=N/NC(N)=S)CC[C@]12O [Comp. I-al, (E,E)-17β-(3-Thiosemicarbazono-1-propenyl)-5β-androstane-3β,14β-diol] | 3980 | 39800 | – |
| CO/N=C/C=C/[C@H]1CC[C@]2(O)[C@@H]3CC[C@@H]4C[C@@H](O)CC[C@]4(C)[C@H]3CC[C@]12C [Comp. I-an, (E,E)-17β-(3-Methoxyimino-1-propenyl)-5β-androstane-3β,14β-diol] | 2000 | 20000 | – |
| C[C@]12CC[C@H](O)C[C@H]1CC[C@@H]1[C@@H]2CC[C@]2(C)[C@@H](/C=C/C=N/OCCN)CC[C@]12O [Comp. I-ao, (E,E)-17β-[3-(2-Aminoethoxyimino)-1-propenyl]-5β-androstane-3β,14β-diol] | 15.8 | 20 | – |
| C[C@]12CC[C@H](O)C[C@H]1CC[C@@H]1[C@@H]2CC[C@]2(C)[C@@H](/C=C/C=N/OCCCN)CC[C@]12O [Comp. I-ap, (E,E)-17β-[3-(3-Aminopropoxyimino)-1-propenyl]-5β-androstane-3β,14β-diol] | – | 100 | IC50 [3]: 50.1 nM |
| C[C@]12CC[C@H](O)C[C@H]1CC[C@@H]1[C@@H]2CC[C@]2(C)[C@@H](/C=C/C=C/C=N/NC3=NCCN3)CC[C@]12O [Comp. I-av, (E,E,E)-17β-[5-(2-Imidazolin-2-yl)hydrazono-1,3-pentadienyl]-5β-androstane-3β,14β-diol] | 1000 | 10000 | – |
| C[C@]12CC[C@H](O)C[C@H]1CC[C@@H]1[C@@H]2CC[C@]2(C)[C@@](O)(/C=C/C=N/NC3=NCCN3)CC[C@]12O [Comp. I-bp, (E,E)-17β-[3-(2-Imidazolin-2-yl)hydrazono-1-propenyl]-5β-androstane-3β,14β,17α-triol] | 631 | – | IC50 [4]: 7940 nM |
| C[C@]12CC[C@H](OCCN3CCCC3)C[C@H]1CC[C@@H]1[C@@H]2CC[C@]2(C)[C@@H](/C=C/C=NNC(=N)N)CC[C@]12O [Comp. I-bx, 3β-[2-(1-Pyrrolidinyl)ethoxy]-17β-(3-(E,Z)-guanidinoimino-1-(E)-propenyl)-5β-androstane-3β,14β-diol] | 20 | 126 | – |
| CN(C)CCO/N=C/C=C/[C@H]1CC[C@]2(O)[C@@H]3CC[C@@H]4C[C@H](O)CC[C@]4(C)[C@H]3CC[C@]12C [Comp. I-ck, (E,E)-17β-[3-(2-Dimethylaminoethoxyimino)-1-propenyl]-5β-androstane-3α,14β-diol] | – | 63.1 | IC50 [3]: 50.1 nM |
| C[C@]12CC[C@@H](O)C[C@H]1CC[C@@H]1[C@@H]2CC[C@]2(C)[C@@H](/C=C/C=N/NC(=N)N)CC[C@]12O [Comp. I-ej, (E,E)-17β-(3-Guanidinoimino-1-propenyl)-5β-androstane-3α,14β-diol] | – | 316 | IC50 [3]: 50.1 nM |
| C[C@]12CC[C@H](OCCCN)C[C@H]1CC[C@@H]1[C@@H]2CC[C@]2(C)[C@@H](/C=C/C=N/NC(=N)N)CC[C@]12O [qomp. I-cd, (E,E)-3β-(3-Aminopropoxy)-17β-(3-guanidinoimino-1-propenyl)-5β-androstane-3β,14β-diol] | 15.8 | 79.4 | – |
